Patent US20210253598A1, “ARYL ANNULATED MACROCYCLIC INDOLE DERIVATIVES” (priority 2017, published 2021)
“And” between values parts separate entries of the source, which are not always exact repeats. Equal entries are not always repeated. Where two headings read alike, the source gives them in different places.

Assays:
SUDHL10 [1] = assay: Induction of cytotoxicity in SUDHL10 cells, CellTiter-Glo (Assay 6); assay type: cell-based; details: SUDHL10, 5 hours incubation, median, read-out: Cytotox SUDHL10 [M] (median)
Protocol: (§1) Induction of Cytotoxicity Upon Treatment of Cells with Selected Compounds
(§2) In principle, compounds that induce apoptosis will concomitantly induce cell cytotoxicity. Therefore, cytotoxicity assays were run in parallel in SUDHL5 and SUDHL10 cells.
(§3) As a control, medium without cells was also added to the plate. Cells were incubated in a humidified incubator at 37° C. overnight. […] Rim wells were excluded. The cells were incubated for 5 hours in a humidified incubator at 37° C. After this incubation, 30 μl of CellTiter-Glo® Luminescent Cell Viability reagent (Promega, G7573) was added to each well using the Multidrop Combi Reagent Dispenser, followed by 15 minutes incubation on a shaker at room temperature. Finally, luminescence was read at 0.1 ms, with a gain of 3000 using the PHERAstar FS microplate reader (BMG Labtech).

SUDHL5 [2] = assay: Induction of caspase-3/7 activity in SUDHL5 cells (Assay 4); assay type: cell-based; details: SUDHL5, 3 hours treatment, Caspase-Glo 3/7, median, read-out: Caspase SUDHL5 [M] (median)
Protocol: (§4) Induction of Caspase-3/7 Activity Upon Treatment of Cells with Selected Compounds
(§5) The BH3-domain of MCL-1 sequesters pro-apoptotic proteins, thereby inhibiting apoptosis. In contrast, MCL-1 inhibitors are expected to antagonize this effect leading to an increase in apoptosis, which can be determined by measuring the activity of caspase-3/7.
(§6) The activity of caspase-3/7 was determined in DLBCL (Diffuse large B-cell lymphoma) cell lines (SUDHL5 and SUDHL10) upon treatment with different compounds, using the Caspase-Glo® 3/7 reagent from Promega (G8092).
(§7) As a control, medium without cells was also added to the plate. Cells were incubated in a humidified incubator at 37° C. overnight.
(§8) Rim wells were excluded. The cells were incubated for 3 hours in a humidified incubator at 37° C. After this incubation, 30 μl of Caspase-Glo® 3/7 reagent (Promega G8092) was added to each well using the Multidrop Combi Reagent Dispenser, followed by 1 hour incubation at 37° C. Finally, luminescence was read at 0.1 ms, with a gain of 3000 using the PHERAstar FS microplate reader (BMG Labtech).
(§9) For the evaluation of the results, the background measured with “medium-only” was subtracted from all other values. Then, the values were normalized to DMSO-only treated cells (every value was divided by the mean of the DMSO control).

A2780 = assay: Anti-proliferative effect in A2780 cells, CellTiter-Glo (Assay 7); assay type: cell-based; details: A2780, 72 hours incubation, CellTiter-Glo, several values per example, read-out: Antiproli A2780
Protocol: (§10) Assessment of the Anti-Proliferative Effect of Compounds in Different Cell Lines
(§11) The impact of compounds on the proliferation of different cell lines was assessed using the CellTiter-Glo® Luminescent Cell Viability reagent from Promega (G7573).
(§12) In parallel, cells were plated in a reference (day 0) plate for time zero determination. Cells were incubated in a humidified incubator at 37° C. overnight.
(§13) Rim wells were excluded. The cells were incubated for 72 hours in a humidified incubator at 37° C. The day 0 plate was measured by adding 30 μL/well of CTG solution (CellTiter-Glo® Luminescent Cell Viability reagent, Promega G7573) to time zero wells in the reference plate followed by a 10 minutes incubation and luminescence reading at 0.1 ms. using the PHERAstar FS microplate reader (BMG Labtech).
(§14) After 72 hours incubation, the treated plates were measured in the same way as the day 0 plate mentioned above. The Bella DRC Master Sheet was used to calculate IC50s, with CI=day 0 values and C0=DMSO control values.

SUDHL5 [3] = assay: Induction of cytotoxicity in SUDHL5 cells, CellTiter-Glo (Assay 6); assay type: cell-based; details: Homo sapiens, SU-DHL-5, 5 h, SUDHL5, 5 hours incubation, median, read-out: Cytotox SUDHL5 [M] (median)
Protocol: as §1, §2, §3

SUDHL10 [4] = assay: Induction of caspase-3/7 activity in SUDHL10 cells (Assay 4); assay type: cell-based; details: SUDHL10, 3 hours treatment, Caspase-Glo 3/7, median, read-out: Caspase SUDHL10 [M] (median)
Protocol: as §4, §5, §6, §7, §8, §9

MV-4-11 = assay: Anti-proliferative effect in MV-4-11 cells, CellTiter-Glo (Assay 7); assay type: cell-based; details: MV-4-11, 72 hours incubation, CellTiter-Glo, several values per example, read-out: Antiproli MV-4-11
Protocol: as §10, §11, §12, §13, §14

SUDHL5 [5] = assay: Anti-proliferative effect in SUDHL5 cells, CellTiter-Glo (Assay 7); assay type: cell-based; details: SUDHL5, 72 hours incubation, CellTiter-Glo, median, read-out: Antiproli SUDHL5 [M] (median)
Protocol: as §10, §11, §12, §13, §14

MCL-1 = MCL-1 (Homo sapiens, UniProt Q07820, K194A/K197A/R201A); assay: Protein-protein interaction assay MCL-1/Noxa BH3 peptide, TR-FRET (MCL-1 assay, Assay 1); assay type: binding; details: MBP-MCL-1 / Noxa BH3 peptide
Sequence of MCL-1 (Q07820 173-321 K194A/K197A/R201A, looked up): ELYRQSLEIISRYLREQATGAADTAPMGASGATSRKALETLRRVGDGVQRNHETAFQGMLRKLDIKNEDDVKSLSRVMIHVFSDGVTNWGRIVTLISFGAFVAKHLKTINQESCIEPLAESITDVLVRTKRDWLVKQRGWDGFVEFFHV
Protocol: The dose-dependent inhibition by the compounds described in this invention of the interaction between MCL-1 and the BH3 domain of Noxa (both human) was determined using a steady state binding competition assay with time-resolved fluorescence energy transfer (TR-FRET) readout. For that purpose MCL-1 (amino acids 173-321, N-terminal fused to Maltose Binding Protein (MBP), SEQ ID 1) and a synthetic Noxa BH3-derived peptide of sequence Biotin-PEG2-PEG2-PAELEVE-Nva-[…]-amide (SEQ ID 2) served as protein receptor and tracer ligand respectively. The MBP-MCL-1 was purchased from Beryllium (Bedford, Mass., USA). The expression and purification of this protein construct has been described elsewhere (DOI:10.1371/journal.pone.0125010). The Noxa BH3-derived peptide can be obtained from e.g. Biosyntan (Berlin, Germany).
For that, 100-fold concentrated DMSO solutions were prepared by serial dilutions (1:3.4) of a 2 mM stock solution in a clear, 384-well microtiter plate (Greiner Bio-One, Frickenhausen, Germany). From there, 50 nl were transferred in a dark test plate (Greiner Bio-One, Frickenhausen, Germany). The assay was initiated by addition of 2 μl of a 2,5-fold concentrated MBP-MCL-1 solution (usually for a 1 nM end concentration in 5 μl reaction volume) in aqueous assay buffer [50 mM Tris/HCl pH 7, 100 mM sodium chloride (NaCl), 50 mM potassium fluoride (KF), 0.005% Tween-20, 2 mM DTT, 0.1% bovine gamma globulin (BGG)] to the compounds in the assay plate. This was followed by a 10-minute incubation step at 22° C. for pre-equilibration of the putative complex between MBP-MCL-1 and the compounds.
The mixture was incubated in the dark for one hour at 22° C. and then overnight at 4° C. The formation of MCL-1/Noxa complexes was determined by measuring the resonance energy transfer of the anti-MBP-Eu-cryptate antibody to the streptavidin-XL665 present in the reaction.
The resulting data (ratio) were normalized, taking 0% inhibition as the mean value of control measurements (usually 32 data points) where all reagents were included. In this case 50 nl DMSO were used instead of compounds. […] IC50 values were determined by regression analysis based on a 4 parameter equation (minimum, maximum, IC50, Hill; Y=Max+(Min−Max)/(1+(X/IC50)^Hill) using the Screener Software (Genedata).

| Structure (SMILES) | IC50 (SUDHL10 [1]; Homo sapiens, SU-DHL10, 5 h) [M] | EC50 (SUDHL5 [2]; Homo sapiens, SU-DHL-5, 3 h) [M] | IC50 (A2780) | IC50 (A2780; Homo sapiens, A2780, 72 h) [µM] | IC50 (SUDHL5 [3]) [M] | EC50 (SUDHL10 [4]; Homo sapiens, SU-DHL10, 3 h) [M] | IC50 (MV-4-11; Homo sapiens, MV4-11, 72 h) [µM] | IC50 (MV-4-11) | IC50 (SUDHL5 [5]; Homo sapiens, SU-DHL-5, 72 h) [M] | IC50 (MCL-1; MCL-1 Assay [M] (median)) | IC50 (MCL-1; median, read-out: MCL-1 Assay [M] (median)) | IC50 (SUDHL10 [1]) [M] | EC50 (SUDHL5 [2]) [M] | EC50 (SUDHL10 [4]) [M] | IC50 (SUDHL5 [5]) [M] |
| --- | --- | --- | --- | --- | --- | --- | --- | --- | --- | --- | --- | --- | --- | --- | --- |
| Cc1c2c(nn1C)CNCc1ccccc1Cn1c(C(=O)O)c(CCCOc3cccc4ccccc34)c3cccc-2c31 (racemic) [Example 11, (rac)-4,5-Dimethyl-17-[3-(naphthalen-1-yloxy)propyl]-7,8,9,14-tetrahydro-5H-indolo[1,7-bc]pyrazolo[4,3-e][2,8]benzodiazacycloundecine-16-carboxylic Acid] | 1.5e-05 | 5.6e-06 | 12.2 µM | 11.8 | 5.6e-06 | 1.6e-05 | 7.59 | 7.42 µM | 7.2e-06 |  |  |  |  |  |  |
| Cc1c2c(nn1C)CN(C)Cc1ccccc1Cn1c(C(=O)O)c(CCCOc3cccc4ccccc34)c3cccc-2c31 (racemic) [Example 14, (rac)-4,5,8-Trimethyl-17-[3-(naphthalen-1-yloxy)propyl]-7,8,9,14-tetrahydro-5H-indolo[1,7-bc]pyrazolo[4,3-e][2,8]benzodiazacycloundecine-16-carboxylic Acid] | 7e-06 | 2.7e-06 |  | 17.5 | 3e-06 | 7.6e-06 | 6.41 |  | 3.4e-06 | 5.2e-09 |  |  |  |  |  |
| COc1cc(CNC(=O)N2Cc3ccccc3Cn3c(C(=O)O)c(CCCOc4cccc5ccccc45)c4cccc(c43)-c3c(nn(C)c3C)C2)cc(OC)c1OC (racemic) [Example 20, (rac)-4,5-Dimethyl-17-[3-(naphthalen-1-yloxy)propyl]-8-[(3,4,5-trimethoxybenzyl)carbamoyl]-7,8,9,14-tetrahydro-5H-indolo[1,7-bc]pyrazolo[4,3-e][2,8]benzodiazacycloundecine-16-carboxylic Acid] | > 3.3e-05 | > 3.3e-05 |  | 13.7 | > 3.3e-05 | > 3.3e-05 | 10.8 |  | 1.2e-05 | 1.8e-07 |  |  |  |  |  |
| Cc1c2c(nn1C)CN(C(=O)CC1CCOCC1)Cc1ccccc1Cn1c(C(=O)O)c(CCCOc3cccc4ccccc34)c3cccc-2c31 (racemic) [Example 21, (rac)-4,5-Dimethyl-17-[3-(naphthalen-1-yloxy)propyl]-8-(tetrahydro-2H-pyran-4-ylacetyl)-7,8,9,14-tetrahydro-5H-indolo[1,7-bc]pyrazolo[4,3-e][2,8]benzodiazacycloundecine-16-carboxylic Acid] | > 3.3e-05 | 2e-05 |  | 11.9 | 1.3e-05 | > 3.3e-05 | 8.33 |  | 1.1e-05 | 3.5e-08 |  |  |  |  |  |
| Cc1c2c(nn1C)COCc1ccccc1Cn1c(C(=O)O)c(CCCOc3cccc4ccccc34)c3ccc(F)c-2c31 (racemic) [Example 67, (rac)-15-Fluoro-13,14-dimethyl-1-(3-(naphthalen-1-yloxy)propyl)-4,9,11,13-tetrahydrobenzo[3,4]pyrazolo[4′,3′:9,10][1,6]oxaazacycloundecino[8,7,6-hi]indole-2-carboxylic Acid] | 4.9e-06 | 2.2e-06 |  | 20.5 | 1.8e-06 | 5.9e-06 | 3.08 |  | 2.4e-06 |  |  |  |  |  |  |
| CCc1c2c(nn1C)COCc1ccccc1Cn1c(C(=O)O)c(CCCOc3cccc4ccccc34)c3ccc(F)c-2c31 (racemic) [Example 70, (rac)-14-Ethyl-15-fluoro-13-methyl-1-(3-(naphthalen-1-yloxy)propyl)-4,9,11,13-tetrahydrobenzo[3,4]pyrazolo[4′,3′:9,10][1]oxa[6]azacycloundecino[8,7,6-hi]indole-2-carboxylic Acid] |  |  | 22.8 µM and 22.5 µM |  |  |  |  | 2.41 µM and 2.27 µM |  |  | 2.1e-09 | 6.1e-06 | 1.6e-06 | 8.6e-06 | 2.2e-06 |
| Cc1c2c(nn1C)COCc1ncccc1Cn1c(C(=O)O)c(CCCOc3cccc4ccccc34)c3cccc-2c31 [Example 07] |  |  | 29.6 µM and > 33 µM |  |  |  |  | 5.15 µM and 5.5 µM |  |  |  |  |  |  |  |
